ChEMBL document CHEMBL1201862, “PubChem BioAssay data set” (2004)
Blank lines part the entries; values can stand above or below the compound they belong to. Activity calls are given as the source filed them.

Columns and labels:
CHO-K1 = assay: (§1) Counterscreen for antagonists of the orexin 1 receptor (OX1R; HCRTR1): Homogeneous time resolved fluorescence (HTRF)-based cell-based dose response assay to identify antagonists of the parental CHO-K1 cell line. [Related pubchem assays (depositor defined):AID434989, AID435008, AID463079, AID485270, AID492963, AID492964, AID492965, AID493232, AID504699, AID504701]; assay type: functional; settings: Cricetulus griseus
[1] = as §1, with “Fluorescence-based” for “Homogeneous time resolved fluorescence (HTRF)-based”, “cell-based high throughput” for “cell-based”, “CHO” for “CHO-K1”; assay type: functional
[2] = biological target: T1, Orexin/Hypocretin receptor type 1 (Homo sapiens, UniProt O43613); assay: Homogeneous Time Resolved Fluorescence (HTRF)-based cell-based high throughput dose response assay for antagonists of the orexin 1 receptor (OX1R; HCRTR1). [Related pubchem assays (depositor defined):AID434989, AID435008, AID463079, AID485270, AID492963, AID492964, AID492965, AID493232, AID504717, AID504718]; assay type: functional
[3] = biological target: T1, Orexin/Hypocretin receptor type 1; assay: Fluorescence-based cell-based high throughput dose response assay for antagonists of the orexin 1 receptor (OX1R; HCRTR1). [Related pubchem assays (depositor defined):AID434989, AID435008, AID463079, AID485270, AID492963, AID492964, AID492965, AID493232, AID504717, AID504718]; assay type: functional
Orexin receptor type 2 [4] = biological target: T2, Orexin receptor type 2 (Homo sapiens, UniProt O43614); assay: Counterscreen assay for antagonists of the orexin 1 receptor (OX1R; HCRTR1): Fluorescence-based cell-based dose response assay for antagonists of the orexin 2 receptor (OX2R; HCRTR2), run by assay provider.; assay type: functional
Orexin receptor type 2 [5] = biological target: T2, Orexin receptor type 2; assay: Counterscreen assay for antagonists of the orexin 1 receptor (OX1R; HCRTR1): Homogeneous Time Resolved Fluorescence (HTRF)-based cell-based dose response assay for antagonists of the orexin 2 receptor (OX2R; HCRTR2), run by assay provider.; assay type: functional
[6] = biological target: T3, Calpain-2 catalytic subunit (Sus scrofa, UniProt P43367); assay: pig calpain II inhibitor potency, dose response, biochemical, fluorogenic peptide substrate (AID 1420); assay type: functional
T3 sequence (P43367 whole entry): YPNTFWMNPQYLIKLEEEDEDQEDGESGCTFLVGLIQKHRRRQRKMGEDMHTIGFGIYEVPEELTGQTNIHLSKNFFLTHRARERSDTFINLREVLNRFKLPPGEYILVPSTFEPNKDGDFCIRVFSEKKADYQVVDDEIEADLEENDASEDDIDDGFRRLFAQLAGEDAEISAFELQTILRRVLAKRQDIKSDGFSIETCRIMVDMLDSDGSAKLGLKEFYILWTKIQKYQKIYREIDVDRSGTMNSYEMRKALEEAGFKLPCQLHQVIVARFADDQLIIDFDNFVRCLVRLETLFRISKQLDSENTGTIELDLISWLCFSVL

Insulin-degrading enzyme [7] = biological target: T4, Insulin-degrading enzyme (Homo sapiens, UniProt P14735); assay: activators of recombinant IDE enzyme, dose response, counter-screen for IDE activator project, biochemical, fluorescence polarization (AID 588681)
Insulin-degrading enzyme [8] = biological target: T4, Insulin-degrading enzyme; assay: activators of endogenous IDE in HEK cells, dose response, cell-based, fluorescence polarization (AID 588439); assay type: functional
HEK293 [9] = assay: HEK cell cytotoxicity by LDH release, dose response, cytotoxicity control for IDE activator project, fluorescence, HEK cells (AID 588440); assay type: functional, cell-based; settings: Homo sapiens;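 note: cytotoxicity by LDH release measuring loss of membrane integrity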
HEK293 [10] = assay: optical interference in Abeta FP readout, dose response, artefact control for IDE activator project, biochemical, fluorescence polarization (AID 588442); assay type: functional, cell-based; settings: Homo sapiens
[11] = inhibitors of intracellular T. cruzi replication, confirmation, NIH3T3 host cells, beta-gal luminescence (AID 2044); assay type: functional, cell-based;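 note: intracellular parasites grown in NIH/3T3 mouse fibroblasts as host cells; luminescent beta-galactosidase reporter signal from transgenic T. cruzi replicating inside host cells; inhibitors lower the luminescence signal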
[12] = cytotoxicity toward NIH3T3 fibroblasts, dose response, counter-screen, cell-based, ATP luminescence, mouse fibroblasts (AID 2010); assay type: functional;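 note: cells exposed to compound for about 90 hours before reading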
[13] = biological target: T5, Heat shock factor protein 1 (Mus musculus, UniProt P38532); assay: HSF1 potentiators in luciferase reporter cells, confirmation, cell-based, NIH3T3, luminescence, dose retest (AID 435004); assay type: functional;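 note: stress induced by proteasome inhibitor MG132 added 30 min after compound; luciferase reporter driven by HSF1 response element in NIH3T3 cells; actives raise luminescence as potentiators of the MG132 stress response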
T5 sequence (P38532 whole entry): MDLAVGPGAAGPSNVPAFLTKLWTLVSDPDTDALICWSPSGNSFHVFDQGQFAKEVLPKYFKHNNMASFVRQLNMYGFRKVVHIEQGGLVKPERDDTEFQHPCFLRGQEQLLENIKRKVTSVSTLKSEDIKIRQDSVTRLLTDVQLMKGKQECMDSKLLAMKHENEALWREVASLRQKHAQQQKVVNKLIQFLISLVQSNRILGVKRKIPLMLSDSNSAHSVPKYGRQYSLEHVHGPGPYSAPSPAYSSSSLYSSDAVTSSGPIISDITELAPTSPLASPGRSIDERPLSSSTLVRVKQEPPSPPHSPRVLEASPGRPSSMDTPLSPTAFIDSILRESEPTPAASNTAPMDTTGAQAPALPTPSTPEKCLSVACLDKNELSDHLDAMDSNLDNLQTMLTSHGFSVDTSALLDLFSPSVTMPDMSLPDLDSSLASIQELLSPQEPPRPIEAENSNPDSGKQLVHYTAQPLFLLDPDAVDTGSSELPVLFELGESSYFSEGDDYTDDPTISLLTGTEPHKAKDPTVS

CAAX prenyl protease 2 = biological target: T6, CAAX prenyl protease 2 (Saccharomyces cerevisiae S288c, UniProt Q03530); assay: yeast Rce1 CaaX protease inhibitors, dose response, biochemical, plate reader, dry powder retest (AID 588851)
T6 sequence (Q03530 whole entry): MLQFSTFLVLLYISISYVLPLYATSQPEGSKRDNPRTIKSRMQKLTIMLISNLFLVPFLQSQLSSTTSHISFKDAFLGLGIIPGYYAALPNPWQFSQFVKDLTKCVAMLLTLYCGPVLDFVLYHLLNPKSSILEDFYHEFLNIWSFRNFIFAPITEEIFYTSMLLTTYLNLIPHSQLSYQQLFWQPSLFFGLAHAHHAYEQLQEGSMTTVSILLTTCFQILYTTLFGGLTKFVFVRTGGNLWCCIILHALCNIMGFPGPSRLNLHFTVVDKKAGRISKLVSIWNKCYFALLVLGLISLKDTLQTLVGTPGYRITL

[14] = biological target: T7, Sentrin-specific protease 8 (Homo sapiens, UniProt Q96LD8); assay: SENP8 protease inhibitors, SAR follow-up, biochemical, luminescence (AID 504501); assay type: functional
T7 sequence (Q96LD8 whole entry): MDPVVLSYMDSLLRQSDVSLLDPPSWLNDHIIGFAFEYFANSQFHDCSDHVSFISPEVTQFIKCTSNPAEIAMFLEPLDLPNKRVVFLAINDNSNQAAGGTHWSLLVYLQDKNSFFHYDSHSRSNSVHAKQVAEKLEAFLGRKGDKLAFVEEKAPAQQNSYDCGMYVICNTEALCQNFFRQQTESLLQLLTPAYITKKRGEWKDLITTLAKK

Caspase-3 = biological target: T8, Caspase-3 (Homo sapiens, UniProt P42574); assay: SAR Analysis of small molecule inhibitors of Sentrin-specific proteases (SENPs) using a Caspase-3 Selectivity assay. [Related pubchem assays (depositor defined):AID2540, AID2599, AID434973, AID489001]; assay type: functional
T8 sequence (P42574 whole entry): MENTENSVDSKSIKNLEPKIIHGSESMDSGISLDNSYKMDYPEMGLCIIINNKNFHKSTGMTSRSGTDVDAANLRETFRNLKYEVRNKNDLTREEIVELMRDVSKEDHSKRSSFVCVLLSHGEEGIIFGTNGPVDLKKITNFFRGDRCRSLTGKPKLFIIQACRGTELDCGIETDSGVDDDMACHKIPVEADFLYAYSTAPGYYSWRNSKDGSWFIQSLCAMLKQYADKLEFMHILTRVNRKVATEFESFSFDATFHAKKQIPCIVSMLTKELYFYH

[15] = biological target: T9, Sentrin-specific protease 6 (Homo sapiens, UniProt Q9GZR1); assay: SAR Analysis of small molecule inhibitors of Sentrin-specific protease 6 (SENP6) using a Luminescent assay. [Related pubchem assays (depositor defined):AID2582, AID2599]; assay type: functional
T9 sequence (Q9GZR1 whole entry): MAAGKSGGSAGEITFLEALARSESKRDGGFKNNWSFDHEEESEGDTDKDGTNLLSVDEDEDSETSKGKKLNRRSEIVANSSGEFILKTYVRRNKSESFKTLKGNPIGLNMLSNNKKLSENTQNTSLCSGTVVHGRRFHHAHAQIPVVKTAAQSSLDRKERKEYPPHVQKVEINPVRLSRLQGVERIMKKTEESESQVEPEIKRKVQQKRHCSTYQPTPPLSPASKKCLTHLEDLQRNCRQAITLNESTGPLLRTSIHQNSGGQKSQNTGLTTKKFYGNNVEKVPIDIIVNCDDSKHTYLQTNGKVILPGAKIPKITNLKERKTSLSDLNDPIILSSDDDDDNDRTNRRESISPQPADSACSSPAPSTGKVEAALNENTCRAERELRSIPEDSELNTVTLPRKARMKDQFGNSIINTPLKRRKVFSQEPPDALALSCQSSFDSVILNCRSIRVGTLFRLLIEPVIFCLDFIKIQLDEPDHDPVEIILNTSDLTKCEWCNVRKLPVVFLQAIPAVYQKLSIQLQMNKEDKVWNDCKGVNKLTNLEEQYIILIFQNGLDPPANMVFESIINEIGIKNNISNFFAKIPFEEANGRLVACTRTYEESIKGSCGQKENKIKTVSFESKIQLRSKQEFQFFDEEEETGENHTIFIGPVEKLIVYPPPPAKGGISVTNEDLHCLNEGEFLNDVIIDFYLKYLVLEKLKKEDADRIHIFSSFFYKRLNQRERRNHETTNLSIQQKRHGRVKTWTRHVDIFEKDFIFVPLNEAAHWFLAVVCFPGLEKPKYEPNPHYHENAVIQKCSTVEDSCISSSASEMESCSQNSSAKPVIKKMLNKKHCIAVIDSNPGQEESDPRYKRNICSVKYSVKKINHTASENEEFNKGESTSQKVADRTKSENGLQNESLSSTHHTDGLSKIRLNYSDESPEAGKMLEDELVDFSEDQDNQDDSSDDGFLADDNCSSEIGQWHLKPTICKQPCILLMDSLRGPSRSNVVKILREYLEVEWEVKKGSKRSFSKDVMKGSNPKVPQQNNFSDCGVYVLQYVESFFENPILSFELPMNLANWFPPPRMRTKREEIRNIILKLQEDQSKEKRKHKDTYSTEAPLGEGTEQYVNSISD

[16] = biological target: T10, Sentrin-specific protease 7 (Homo sapiens, UniProt Q9BQF6); assay: SENP7 protease inhibitors, SAR follow-up, biochemical, luminescence (AID 504497); assay type: functional
T10 sequence (Q9BQF6 whole entry): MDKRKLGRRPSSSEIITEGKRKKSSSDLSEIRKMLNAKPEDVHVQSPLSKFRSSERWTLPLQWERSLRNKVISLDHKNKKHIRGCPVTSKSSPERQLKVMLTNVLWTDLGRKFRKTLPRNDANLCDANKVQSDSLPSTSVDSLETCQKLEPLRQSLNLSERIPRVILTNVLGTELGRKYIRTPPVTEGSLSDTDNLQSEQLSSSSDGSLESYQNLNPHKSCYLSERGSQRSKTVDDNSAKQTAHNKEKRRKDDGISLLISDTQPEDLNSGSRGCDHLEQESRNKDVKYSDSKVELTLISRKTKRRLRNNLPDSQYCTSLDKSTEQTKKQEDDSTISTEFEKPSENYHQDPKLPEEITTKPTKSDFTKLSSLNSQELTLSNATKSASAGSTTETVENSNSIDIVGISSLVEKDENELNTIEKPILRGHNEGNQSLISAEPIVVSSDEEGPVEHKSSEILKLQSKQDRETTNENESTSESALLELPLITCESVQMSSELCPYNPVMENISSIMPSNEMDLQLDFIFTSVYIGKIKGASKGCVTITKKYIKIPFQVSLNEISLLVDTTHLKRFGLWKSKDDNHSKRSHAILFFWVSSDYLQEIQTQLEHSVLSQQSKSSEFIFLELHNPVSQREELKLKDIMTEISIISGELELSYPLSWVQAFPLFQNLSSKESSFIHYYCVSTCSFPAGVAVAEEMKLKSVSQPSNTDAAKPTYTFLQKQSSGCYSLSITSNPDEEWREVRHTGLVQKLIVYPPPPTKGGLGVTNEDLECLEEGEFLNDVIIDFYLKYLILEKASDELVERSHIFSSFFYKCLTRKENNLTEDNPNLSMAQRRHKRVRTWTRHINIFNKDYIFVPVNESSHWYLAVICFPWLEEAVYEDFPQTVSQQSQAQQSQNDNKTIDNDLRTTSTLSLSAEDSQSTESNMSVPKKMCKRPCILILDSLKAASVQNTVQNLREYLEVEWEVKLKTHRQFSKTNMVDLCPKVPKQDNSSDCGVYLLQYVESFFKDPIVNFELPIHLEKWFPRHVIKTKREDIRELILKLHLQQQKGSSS

T1 sequence (O43613 whole entry): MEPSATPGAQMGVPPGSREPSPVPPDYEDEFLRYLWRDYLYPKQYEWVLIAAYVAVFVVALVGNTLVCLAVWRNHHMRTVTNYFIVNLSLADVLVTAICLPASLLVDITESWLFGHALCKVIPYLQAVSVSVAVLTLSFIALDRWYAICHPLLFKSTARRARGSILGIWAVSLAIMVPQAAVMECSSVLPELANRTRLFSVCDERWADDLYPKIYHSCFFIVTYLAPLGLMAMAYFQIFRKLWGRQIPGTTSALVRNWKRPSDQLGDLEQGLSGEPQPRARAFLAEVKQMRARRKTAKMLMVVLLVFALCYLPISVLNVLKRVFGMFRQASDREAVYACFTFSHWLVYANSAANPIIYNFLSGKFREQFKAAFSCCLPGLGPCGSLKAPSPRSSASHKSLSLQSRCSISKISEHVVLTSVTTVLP
T4 sequence (P14735 whole entry): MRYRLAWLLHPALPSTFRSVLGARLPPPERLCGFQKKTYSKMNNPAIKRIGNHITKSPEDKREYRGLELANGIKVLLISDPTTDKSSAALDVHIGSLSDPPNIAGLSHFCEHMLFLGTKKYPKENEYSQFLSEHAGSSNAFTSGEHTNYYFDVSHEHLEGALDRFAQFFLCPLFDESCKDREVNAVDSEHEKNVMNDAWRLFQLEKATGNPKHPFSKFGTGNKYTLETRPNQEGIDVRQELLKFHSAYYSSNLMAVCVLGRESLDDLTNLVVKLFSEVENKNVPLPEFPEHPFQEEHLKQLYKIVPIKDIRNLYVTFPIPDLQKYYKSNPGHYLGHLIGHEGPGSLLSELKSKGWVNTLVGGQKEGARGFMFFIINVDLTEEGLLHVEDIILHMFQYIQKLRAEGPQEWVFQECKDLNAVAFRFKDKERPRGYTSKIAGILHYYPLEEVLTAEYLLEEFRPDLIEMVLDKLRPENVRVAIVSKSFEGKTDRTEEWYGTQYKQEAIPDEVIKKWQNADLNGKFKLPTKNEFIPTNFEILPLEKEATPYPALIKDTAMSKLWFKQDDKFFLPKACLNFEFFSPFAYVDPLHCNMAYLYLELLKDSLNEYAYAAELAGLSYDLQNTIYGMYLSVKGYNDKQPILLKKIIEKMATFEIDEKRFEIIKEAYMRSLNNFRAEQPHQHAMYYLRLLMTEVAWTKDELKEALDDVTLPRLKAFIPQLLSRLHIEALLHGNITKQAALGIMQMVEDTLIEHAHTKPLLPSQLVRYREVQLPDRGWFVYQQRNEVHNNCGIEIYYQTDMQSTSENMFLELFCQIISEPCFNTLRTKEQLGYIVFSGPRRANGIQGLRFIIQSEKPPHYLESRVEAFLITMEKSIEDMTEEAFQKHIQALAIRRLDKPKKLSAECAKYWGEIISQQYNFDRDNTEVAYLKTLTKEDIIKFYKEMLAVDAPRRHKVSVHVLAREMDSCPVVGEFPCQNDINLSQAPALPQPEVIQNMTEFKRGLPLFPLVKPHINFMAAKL
T2 sequence (O43614 whole entry): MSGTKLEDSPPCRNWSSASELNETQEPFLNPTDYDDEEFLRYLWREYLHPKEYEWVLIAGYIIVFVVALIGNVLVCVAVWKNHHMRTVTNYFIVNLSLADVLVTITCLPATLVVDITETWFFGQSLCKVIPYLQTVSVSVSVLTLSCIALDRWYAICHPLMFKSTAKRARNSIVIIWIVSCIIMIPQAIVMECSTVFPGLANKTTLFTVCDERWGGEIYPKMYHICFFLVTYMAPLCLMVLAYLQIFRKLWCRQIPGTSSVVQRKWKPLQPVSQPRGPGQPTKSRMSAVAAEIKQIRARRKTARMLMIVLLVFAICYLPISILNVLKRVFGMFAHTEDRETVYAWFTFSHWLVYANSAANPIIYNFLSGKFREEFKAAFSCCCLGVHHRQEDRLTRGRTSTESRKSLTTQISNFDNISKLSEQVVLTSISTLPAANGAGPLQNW

SMILES: COc1cccc(/C=C2/Oc3ccccc3N(CC(=O)NCC3CCCO3)C2=O)c1 (centres undefined)
- IC50 (CHO-K1): > 66.2 µM (inactive)
- IC50 [1]: > 49.7 µM (inactive)
- IC50 [2]: 0.254 µM (active)
- IC50 [3]: 0.426 µM (active)
- IC50 (Orexin receptor type 2 [4]): 3.82 µM (active)
- IC50 (Orexin receptor type 2 [5]): 0.96 µM (active)

SMILES: COc1ccc(OCCNc2cc(N3CCOCC3)ccc2[N+](=O)[O-])cc1
- IC50 [6]: 13.8 µM (not active)
- EC50 (Insulin-degrading enzyme [7]): > 54.7 µM (inactive)
- EC50 (Insulin-degrading enzyme [8]): > 54.7 µM (inactive)
- IC50 (HEK293 [9]): > 89.3 µM (inactive)
- EC50 (HEK293 [10]): > 56 µM (inactive)

SMILES: COc1ccc(-n2c(SCc3ccc([N+](=O)[O-])cc3)nnc2-c2ccc(C)cc2)cc1
- EC50 [11]: 1.35 µM (active)
- EC50 [12]: > 60 µM (inconclusive)
- EC50 [13]: > 260 µM (inactive)
- AC50 (CAAX prenyl protease 2): 5.39 µM (active)

- IC50 (Caspase-3): 14.4 µM (active)
- IC50 [15]: > 99 µM (inactive)
- IC50 [16]: 33.8 µM (active)
SMILES: O=C(Nc1ccncc1)c1ccc2c(c1)OCO2
- IC50 [14]: > 99 µM (inactive)
